Structures can show the parent of a compound that is named as a salt.
Assays:
[1] = In vivo plaque test on beagles (disclosing solution); design: species or system Beagle dogs; details: for PLAQUE Mean Score: Table II, score 1-4, 20 teeth per beagle, placebo 2.19, benzethonium chloride at .075%; for PLAQUE % Diff.: versus placebo, Signif. printed: 50/50 mixture N.S., 90% betaine 95%, Hibitane 95%, .075% benzethonium chloride 99%
Text: The animals used in these studies were registered Beagle dogs 6 to 8 months of age, weighing 8 to 10 kilos. […] They were anaesthesized (Na-Nembutal 25-30 mgs/kg) and received a complete dental prophylaxis. Disclosing solution (TRACE, Erythrosine, Lorvic St. Louis, Mo. U.S.A.) was used to insure the complete removal of soft and hard dental deposits. The dogs receive this diet exclusively -- ground Purina Dog Chow soaked in water for at least two hours to form a soft mush. In addition, each animal receives approximately one-half can of ground beef (no chunks). No hard substances were permitted for the duration of the study. The animals were treated once daily with the test solutions (approx. 6 to 9 ml.) using a gentle spray over all surfaces of dentition. Treatments continued at least five days per week for the duration of the experiment. Each animal was examined weekly for plaque, and stain. Photographs were taken by the examining investigator immediately after the prophylaxis and at every examination. Before starting with the plaque study, the groups were balanced with respect to plaque formation.

[2] = In vivo stain formation test on beagles (oral spray); design: species or system Beagle dogs
Text: This treatment was continued daily for 7 weeks. […] Score results range from 0 to 4:
1 stain present covering one-fourth of tooth surface;
2 stain present covering one-half of tooth surface;
3 stain present covering three-fourths of tooth surface;
4 stain present covering entire tooth surface.
The animals used in these studies were registered Beagle dogs 6 to 8 months of age, weighing 8 to 10 kilos. The animals were kept in good health and had not received any treatment for at least three weeks prior to the start of a study. They were anaesthesized (Na-Nembutal 25-30 mgs/kg) and received a complete dental prophylaxis. Disclosing solution (TRACE, Erythrosine, Lorvic St. Louis, Mo. U.S.A.) was used to insure the complete removal of soft and hard dental deposits. The dogs receive this diet exclusively -- ground Purina Dog Chow soaked in water for at least two hours to form a soft mush. In addition, each animal receives approximately one-half can of ground beef (no chunks). No hard substances were permitted for the duration of the study. The animals were treated once daily with the test solutions (approx. 6 to 9 ml.) using a gentle spray over all surfaces of dentition. Treatments continued at least five days per week for the duration of the experiment. Each animal was examined weekly for plaque, and stain. Photographs were taken by the examining investigator immediately after the prophylaxis and at every examination. Before starting with the plaque study, the groups were balanced with respect to plaque formation.

A. naeslundi = experiment: Minimum inhibitory concentration, test tube serial dilution test; type: cell-based, Actinomycetis naeslundii; details: Actinomyces naeslundii, Gram Positive
Protocol: (§1) The antimicrobial nature of the instant novel nontoxic compounds was shown by a standard test tube serial dilution test in which an appropriate number of test tubes of broth containing decreasing concentration of the test agent was innoculated with the test organism (0.1% in 95% ethyl alcohol). After a suitable period of incubation, the tubes were examined for the presence or absence of growth. The activity of the test agent was the lowest concentration which inhibited the growth of the organism and is expressed as the minimal inhibitory concentration in μgm/ml.

T. ment. = experiment: as above; type: cell-based, Trichophyton mentogrophytes; details: Trichophyton, mold
Protocol: as §1

Strep. mutans = experiment: as above; type: cell-based; details: Streptococcus mutans, Gram Positive
Protocol: as §1

Ps. aeruginosa = experiment: as above; type: cell-based; details: Pseudomonas aeruginosa, Gram Negative
Protocol: as §1

C. albicans = experiment: as above; type: cell-based; details: Candida albicans, yeast
Protocol: as §1

E. Coli = experiment: as above; type: cell-based; details: Escherichia coli, Gram Negative
Protocol: as §1

A. niger = experiment: as above; type: cell-based; details: Aspergillus niger, mold
Protocol: as §1

Staphylococcus aureus = experiment: as above; type: cell-based; details: S. aureus, Gram Positive
Protocol: as §1

Strep. sanguis = experiment: as above; type: cell-based; details: Streptococcus, Gram Positive
Protocol: as §1

bacteria = details: Stedman et al. 1953; cited from earlier work
micro-organisms [3] = experiment: Antimicrobial activity (general statements); type: cell-based
Protocol: as §1, with “μgm/ml. As shown in the following table of anitmicrobial data, the betaines of this invention are active against a variety of micro-organisms with maximum activity when the higher alkyl group has 14-16 carbons.” for “μgm/ml.”

micro-organisms [4] = details: reported by Swain et al. and Stedman et al.; cited from earlier work
[5] = Staining of teeth / oral surfaces (general statements); type: in vivo; details: under use conditions

| Compound | MIC (A. naeslundi) [µg/mL] | MIC (T. ment.) [µg/mL] | MIC (Strep. mutans) [µg/mL] | MIC (Ps. aeruginosa) [µg/mL] | MIC (C. albicans) [µg/mL] | MIC (E. Coli) [µg/mL] | MIC (A. niger) [µg/mL] | MIC (Staphylococcus aureus) [µg/mL] | MIC (Strep. sanguis) [µg/mL] | further results |
| --- | --- | --- | --- | --- | --- | --- | --- | --- | --- | --- |
| CC(C)(C)CC(C)(C)c1ccc(OCCOCC[N+](C)(C)Cc2ccccc2)cc1 [Benzethonium Chloride, benzethonium chloride] | – | – | – | – | – | – | – | – | – | PLAQUE Mean Score [1]: 1.80; PLAQUE % Diff. [1]: -25.0%; Mean Stain Result ([2]; 0.1% aqueous solution, daily spray, 7 weeks, 10 dogs, score 0-4, deionized water 0.07): 0.59; increase in staining ([2]; 0.1% solution, 7 weeks, versus deionized water): 742%; No. of dogs w. Stain ([2]; Table II, dogs with stain/dogs tested, placebo 1/8, benzethonium chloride at .075%): 3/7; Mean Stain Score ([2]; Table II, score 0-4, placebo 0.388, benzethonium chloride at .075%): 0.53 |
| CCCCCCCCCCCC[N+](C)(C)CCCCCCCCCCC(=O)O [C12 H25 [RN^+ (CH3)2 (CH2)10 COOH] Pr^-] | 12.5 | 12.5 | 12.5 | 50 | 25 | 100 | 50 | 6.25 | 12.5 | – |
| CCCCCCCCCCCCCC[N+](C)(C)CCCCCCCCCCC(=O)[O-] [C14 H29 RN^+ CH3)2 (CH2)10 COOH, N-(10-Carboxydecyl)-N, N-dimethyltetradecanaminium hydroxide, inner salt] | 0.39 | 0.78 | 1.56 | 100 | 3.12 | 100 | 50 | 1.56 | 1.56 | – |
| CCCCCCCCCCCCCC[N+](C)(C)CCCCCCCCCCC(=O)O.[Br-] [C14 H29 [RN^+ (CH3)2 (CH2)10 COOH] Pr^-, tetradecyldimethyl(10-carboxydecyl)-ammonium bromide] | 0.39 | 3.12 | 1.56 | 50 | 3.12 | 100 | 25 | 0.39 | 1.56 | – |
| CCCCCCCCCCCCCCCC[N+](C)(C)CC(=O)[O-] [C16 H33 N^+ (CH3)2 CH2 COO^-] | – | – | – | – | – | – | – | – | – | bactericidal activity relative to related non-betaine [C16 H33 N(CH3)2 CH2 C6 H5 ]Cl (bacteria): less than one-tenth |
| CCCCCCCCCCCCCCCC[N+](C)(C)CCCCCCCCCCC(=O)[O-] [C16 H33 RN^+ CH3)2 (CH2)10 COOH, N-(10-Carboxydecyl)-N,N-dimethylhexadecanaminium hydroxide, inner salt] | 0.78 | 1.56 | 1.56 | 100 | 3.12 | 100 | 100 | 1.56 | 0.78 | antimicrobial activity (micro-organisms [3]): the activity is not diminished and is sufficient for the exhibition of useful antimicrobial and anti-plaque properties |
| CCCCCCCCCCCCCCCC[N+](C)(C)CCCCCCCCCCC(=O)O.[Br-] [C16 H33 [RN^+ (CH3)2 (CH2)10 COOH] Pr^-, Hexadecyldimethyl(10-carboxydecyl)ammonium bromide] | 0.78 | 12.5 | 1.56 | 50 | 3.12 | 100 | 50 | 0.39 | 1.56 | antimicrobial properties (micro-organisms [4]): reported to have antimicrobial properties |
| [H]/N=C(\N/C(=N/[H])NCCCCCCNC(=N)NC(=N)Nc1ccc(Cl)cc1)Nc1ccc(Cl)cc1 [Hibitane, Chlorhexidine] | – | – | – | – | – | – | – | – | – | staining / discoloration [5]: noticeable discolorations; PLAQUE Mean Score [1]: 1.32; PLAQUE % Diff. [1]: -39.7%; Mean Stain Score ([2]; dog, in vivo): 0.956; No. of dogs w. Stain ([2]; dog, in vivo): 8/8; degree of staining ([2]; dog, in vivo): significantly increased staining |

Reference: patent US4130637A, “Anti-plaque agents” (Colgate-Palmolive Company, priority 1977, dated 1978)
